From patent US11952364B2, “TRK inhibitors useful as anticancer drugs” (TYLIGAND BIOSCIENCE (SHANGHAI) LIMITED, priority 2018, dated 2024) come the findings set out here.

A short description of series [1]: Metabolic stability in liver microsomes. Particulars: pH 7.4, monkey liver microsomes; for half-life at 1 µM: read-out: T½. In kind it is in vitro ADME, cynomolgus monkey. From the text: According to standard methods conventional in the art for in vitro metabolic stability studies, for example those protocols described in Kems, Edward H. and Di Li (2008). Drug-like Properties: Concepts. Structure Design and Methods: from ADME to Toxicity Optimization. San Diego: Academic Press; Di, Li et al., Optimization of a Higher Throughput Microsomal Stability Screening Assay for Profiling Drug Discovery Candidates, J. Biomol. Screen. 2003, 8(4), 453., the metabolic stability test in liver microsomes of the present compound was performed analogously as follows.
The in vitro metabolic stability of the compound in 5 species (mouse, rat, dog, monkey, and human) was evaluated by liver microsomal stability test. 0.1M potassium phosphate buffer solution (pH 7.4, containing 1.0 mM EDTA) was prepared. The test compound and the control compound were prepared into a 10 mM DMSO solution, and then 10 μL of the 10 mM DMSO compound solution was added to 190 μL of acetonitrile to prepare a 500 μM compound solution. Liver microsomes (Sekisui XenoTech, LLC., human liver microsomes, cat. #H0610; Beagle dog liver microsomes, cat. #D1000; cynomolgus monkey liver microsomes, cat. #P2073; rat liver microsomes, cat. #R1073; mouse Liver microsomes, cat. #M1000) were taken and slowly melted on ice, then 18.75 μL of the liver microsome solution (20 mg/mL) and 1.5 μL of 500 μM compound solution were added to 479.75 μL of 0.1M potassium phosphate buffer solution to prepare a 0.75 mg/mL liver microsome working solution with a concentration of 1.5 μM compound. 6 mM NADPH (SIGMA, cat. #V900362) aqueous solution was prepared. 0.2 mL 2 mg/mL internal standard stock solution (imipramine solution in acetonitrile) was added to 1000 mL acetonitrile (SIGMA, cat. #271004) to prepare the reaction stop solution and stored at 4° C.
Six deep-well plates were labeled as T0, T5, T15, T30, T45 and NCF60 (negative control, without NADPH). 30 μL of […] control compound or test compound solution in 0.75 mg/mL liver microsome working solution was added to each well of the corresponding plates. After being sealed with film, all the microplates were placed in a 37° C. water bath to preheat for 5 minutes, and 6 mM NADPH solution was placed in a 37° C. water bath to preheat for 5 minutes. Then 15 μL of NADPH solution was added to each cell successively in reverse time order, that is, first adding the T45 plate, 15 minutes later the T30 plate, 15 minutes later again the T15 plate, and 10 minutes later gain the T5 plate. […]
The natural logarithm of the residue percentage at each time point was subjected to linearly regression as a factor of incubation time to obtain Slope k, and then the liver microsome clearance rate (CLint^mic) and in vitro half-life (T½) were calculated according to the following formula: […]
In general terms: Microsomes from liver hold many membrane-bound enzymes, among them those of drug oxidation.

The target of a further series is P450 1A2 (Homo sapiens (Human), UniProt P05177). In words: Cytochrome P450 inhibition in human liver microsomes. Type of series: in vitro ADME. The text has this: (§1) According to the standard methods conventional in the art for cytochrome P450 enzyme system study, for example those described in Kerns, Edward H. and Di Li (2008). Drug-like Properties: Concepts. Structure Design and Methods: from ADME to Toxicity Optimization. San Diego: Academic Press; Lin, Tong et al., In Vitro Assessment of Cytochrome P450 Inhibition: Strategies for Increasing LC/MS-Based Assay Throughput Using a One-Point IC50 Method and Multiplexing High-Performance Liquid Chromatography; J. Pharm. Sci. 2007, 96(9), 2485.), the inhibitory effect of the compounds of the present disclosure on the cytochrome P450 enzyme system was investigated analogously as follows. The test compounds were evaluated by detecting the metabolism of human liver microsomes for the substrates of different subtypes of Cyp450. The liver microsomes (Sekisui XenoTech, LLC., human liver microsomes, cat. #H0610) were slowly melted on ice, and 0.482 mL of the liver microsome solution (20 mg/mL) was added to 30 mL of 100 mM potassium phosphate solution to prepare a liver microsome working solution with a concentration of 0.316 mg/mL. The test compound and specific inhibitors of different Cyp450 subtypes (as a control) were prepared into 10 mM DMSO solutions, and then 20 μL of the 10 mM DMSO compound solution was added to 180 μL of acetonitrile to obtain a 1 mM compound solution. 2 μL of such 1 mM test compound or inhibitor solution was added to 150 μL of 0.316 mg/mL liver microsome working solution to obtain a 13.16 μM compound working solution. 45.3 mg of NADPH (SIGMA, cat. #V900362) was weighted and added into 13.59 mL of deionized water to prepare a 4 mM NADPH aqueous solution. 0.2 mL of 2 mg/mL internal standard stock solution (dexamethasone in acetonitrile) was added to 1000 mL of acetonitrile (SIGMA, cat. #271004) to prepare a reaction stop solution and stored at 4° C. 150 μL 0.316 mg/mL human liver microsome working solution was added to each well of a 96-well deep plate, and 2 μL of 1 mM specific inhibitor or test compound solution was added to the corresponding wells, and then added to each well 50 μL preheated working solution of each substrate (in 4 mM NADPH solution). After incubating for 5-40 minutes respectively (different enzymes have different incubation times), 200 μL of pre-cooled reaction stop solution was added. All samples were centrifuged at 4000 rpm for 20 minutes. 150 μL of the centrifugal supernatant was then added to a new 96-well deep plate, and added to each well 150 μL of 0.1% formic acid aqueous solution, for analysis by LC/MS/MS (SCI AP4000). The single point IC50 values were calculated according to the following formula. [formula] • (Assuming Hill slope=1) • C0=concentration of test compound and inhibitor solution
Sequence of P450 1A2 (P05177 whole entry): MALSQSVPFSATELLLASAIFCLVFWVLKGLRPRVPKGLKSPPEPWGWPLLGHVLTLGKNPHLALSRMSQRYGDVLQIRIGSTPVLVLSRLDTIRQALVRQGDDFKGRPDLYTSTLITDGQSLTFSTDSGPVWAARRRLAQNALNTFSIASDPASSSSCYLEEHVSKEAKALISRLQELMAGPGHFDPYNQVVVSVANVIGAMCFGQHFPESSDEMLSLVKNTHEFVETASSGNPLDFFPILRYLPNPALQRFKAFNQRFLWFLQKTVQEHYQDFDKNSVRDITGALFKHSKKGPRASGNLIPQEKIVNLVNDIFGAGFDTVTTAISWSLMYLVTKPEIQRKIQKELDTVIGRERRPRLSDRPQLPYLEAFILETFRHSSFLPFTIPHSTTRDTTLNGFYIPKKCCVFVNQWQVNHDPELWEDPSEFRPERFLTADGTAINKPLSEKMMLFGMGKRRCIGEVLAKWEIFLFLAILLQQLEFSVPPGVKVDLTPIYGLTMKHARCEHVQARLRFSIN

For the next series, the target named is P450 2C9 (Homo sapiens (Human), UniProt P11712). The series is described as above. Type of series: in vitro ADME.
Sequence of P450 2C9 (P11712 whole entry): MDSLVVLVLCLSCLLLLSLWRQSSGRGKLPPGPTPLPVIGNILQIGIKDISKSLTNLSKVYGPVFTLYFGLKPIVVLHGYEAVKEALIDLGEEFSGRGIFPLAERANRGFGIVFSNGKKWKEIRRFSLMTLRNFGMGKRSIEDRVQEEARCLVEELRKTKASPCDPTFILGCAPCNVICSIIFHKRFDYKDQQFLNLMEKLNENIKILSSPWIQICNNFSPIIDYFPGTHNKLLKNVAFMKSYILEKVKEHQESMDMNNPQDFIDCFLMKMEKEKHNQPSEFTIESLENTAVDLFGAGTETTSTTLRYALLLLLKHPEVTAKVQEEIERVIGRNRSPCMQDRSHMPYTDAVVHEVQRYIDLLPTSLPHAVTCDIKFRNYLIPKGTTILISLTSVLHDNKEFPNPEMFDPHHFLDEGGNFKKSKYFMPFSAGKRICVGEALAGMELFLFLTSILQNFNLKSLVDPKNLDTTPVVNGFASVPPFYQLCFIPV
Text: as §1

Another series addresses P450 2D6 (Homo sapiens (Human), UniProt P10635). Described as above. Type of series: in vitro ADME.
Text: as §1

Sequence of P450 2D6 (P10635 whole entry): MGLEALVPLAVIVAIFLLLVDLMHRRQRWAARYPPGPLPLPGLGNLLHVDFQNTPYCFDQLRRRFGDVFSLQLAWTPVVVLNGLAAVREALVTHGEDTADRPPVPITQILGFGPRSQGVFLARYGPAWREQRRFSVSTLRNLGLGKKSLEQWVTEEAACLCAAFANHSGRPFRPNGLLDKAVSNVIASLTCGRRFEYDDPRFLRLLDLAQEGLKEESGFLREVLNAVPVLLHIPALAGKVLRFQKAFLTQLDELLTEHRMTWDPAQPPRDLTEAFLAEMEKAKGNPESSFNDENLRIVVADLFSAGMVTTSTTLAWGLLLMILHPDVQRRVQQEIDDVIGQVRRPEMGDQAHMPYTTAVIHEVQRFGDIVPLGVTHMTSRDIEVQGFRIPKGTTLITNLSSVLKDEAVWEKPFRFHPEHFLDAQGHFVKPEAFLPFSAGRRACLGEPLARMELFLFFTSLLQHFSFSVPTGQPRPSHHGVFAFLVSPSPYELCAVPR

With `COc1ccc(C(=O)Nc2ccc(Oc3cc4cnn(C)c4cc3-c3cn[nH]c3)c(F)c2)c(=O)n1-c1ccc(F)cc1` [Example 12, N-(3-fluoro-4-(1-methyl-6-(1H-pyrazol-4-yl)-1H-indazol-5-yloxy)phenyl)-1-(4-fluorophenyl)-6-methoxy-2-oxo-1,2-dihydropyridine-3-carboxamide], the CLint scaled – broadly, the rate of metabolic loss divided by the concentration – at 1 µM in series [1] was determined as 36.2 mL/min/kg. Also, the half-life at 1 µM in series [1] worked out at 56 min. In addition, the IC50 – broadly, the point on the concentration scale where inhibition reaches its midpoint – against P450 1A2 was more than 10 µM; on P450 2C9 it was 9.8 µM; against P450 2D6 it was more than 10 µM. The “inhibitory activity on 2C9 compared with Merestinib” value on P450 2C9 (statement in words) is reported as “significantly lower than that of the prior inhibitor Merestinib”.

For `Cc1ccc(C(=O)Nc2ccc(Oc3cc4cnn(C)c4cc3-c3cn[nH]c3)c(F)c2)c(=O)n1-c1ccc(F)cc1` [Merestinib, reference compound], the CLint scaled at 1 µM in series [1] was 81 mL/min/kg. In series [1], the half-life at 1 µM turned out to be 25 min. In addition, the IC50 against P450 1A2 was more than 10 µM; against P450 2C9, 4.2 µM; against P450 2D6, more than 10 µM.
